Assay results as given in US6448269B1 (Eli Lilly and Company, priority 1993, dated 2002).
Where a name gives a salt, the structure may show the parent alone.

What was measured:
GPIIb-IIIa = molecular target: T1, GPIIb-IIIa (Homo sapiens, UniProt P05106+P08514); assay: ELISA IIb-IIIa assay (fibrinogen binding to immobilized GPIIb-IIIa); details: purified platelet GPIIb-IIIa receptor coated on ELISA plates; biotin-labeled fibrinogen 10 nM, 3 hours at 25° C.
T1 construct: Purified platelet GPIIb-IIIa receptor was prepared as described by Fitzgerald; from tissue; host or cells: platelets
T1 sequence (P08514 32-887 limits assumed): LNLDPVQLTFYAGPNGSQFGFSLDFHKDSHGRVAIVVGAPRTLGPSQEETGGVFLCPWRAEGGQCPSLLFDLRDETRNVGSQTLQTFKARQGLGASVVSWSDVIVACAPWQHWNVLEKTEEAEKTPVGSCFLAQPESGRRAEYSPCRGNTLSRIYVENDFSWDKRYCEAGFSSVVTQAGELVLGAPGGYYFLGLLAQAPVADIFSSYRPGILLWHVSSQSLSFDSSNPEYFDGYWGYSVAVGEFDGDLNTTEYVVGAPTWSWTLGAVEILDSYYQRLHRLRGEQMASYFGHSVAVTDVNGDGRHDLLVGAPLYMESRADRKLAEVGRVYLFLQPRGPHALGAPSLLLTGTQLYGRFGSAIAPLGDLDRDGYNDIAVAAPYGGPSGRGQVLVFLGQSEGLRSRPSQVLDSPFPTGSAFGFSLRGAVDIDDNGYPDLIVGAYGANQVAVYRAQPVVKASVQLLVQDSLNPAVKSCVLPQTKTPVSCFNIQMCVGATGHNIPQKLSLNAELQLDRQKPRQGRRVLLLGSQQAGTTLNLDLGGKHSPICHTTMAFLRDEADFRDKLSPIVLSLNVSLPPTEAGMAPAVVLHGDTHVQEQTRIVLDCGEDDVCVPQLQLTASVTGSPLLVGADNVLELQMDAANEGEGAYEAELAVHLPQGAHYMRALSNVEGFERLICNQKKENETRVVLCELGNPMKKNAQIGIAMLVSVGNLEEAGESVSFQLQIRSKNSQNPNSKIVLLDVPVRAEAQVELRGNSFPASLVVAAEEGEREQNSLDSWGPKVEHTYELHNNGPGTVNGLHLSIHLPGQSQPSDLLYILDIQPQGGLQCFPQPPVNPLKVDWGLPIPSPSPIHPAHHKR
T1 sequence (P05106 27-788): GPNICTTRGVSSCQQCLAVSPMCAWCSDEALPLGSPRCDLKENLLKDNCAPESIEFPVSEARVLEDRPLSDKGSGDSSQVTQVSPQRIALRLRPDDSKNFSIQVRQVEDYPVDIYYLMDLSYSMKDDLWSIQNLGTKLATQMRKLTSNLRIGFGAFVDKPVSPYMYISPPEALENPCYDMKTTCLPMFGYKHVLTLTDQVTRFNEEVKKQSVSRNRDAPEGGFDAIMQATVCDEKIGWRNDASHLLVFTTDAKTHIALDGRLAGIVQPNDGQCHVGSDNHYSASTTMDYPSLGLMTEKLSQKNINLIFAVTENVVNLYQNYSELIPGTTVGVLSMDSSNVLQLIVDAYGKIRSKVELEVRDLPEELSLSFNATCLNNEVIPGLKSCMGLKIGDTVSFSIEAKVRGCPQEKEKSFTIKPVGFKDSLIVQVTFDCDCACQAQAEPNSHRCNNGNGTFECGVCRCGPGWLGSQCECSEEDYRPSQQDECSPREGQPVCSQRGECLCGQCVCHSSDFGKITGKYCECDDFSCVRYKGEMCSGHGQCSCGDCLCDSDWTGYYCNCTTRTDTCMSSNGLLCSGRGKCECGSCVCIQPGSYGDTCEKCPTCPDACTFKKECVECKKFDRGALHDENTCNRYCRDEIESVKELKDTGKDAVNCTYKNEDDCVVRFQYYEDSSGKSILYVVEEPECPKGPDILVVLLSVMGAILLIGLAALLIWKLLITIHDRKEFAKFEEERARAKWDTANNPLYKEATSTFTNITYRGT
Experimental: In the following assay, GPIIb-IIIa is prepared in purified form, by a method such as described by Fitzgerald, L. A., et al., Anal Biochem (1985) 151:169-177, (the disclosure of which is incorporated herein by reference). GPIIb-IIIa is coated onto microtiter plates. The coated support is then contacted with fibrinogen and with the test material (e.g., compounds of Formula I) and incubated for a sufficient time to permit maximal binding of fibrinogen to the immobilized GPIIb-IIIa. Fibrinogen is typically provided at a concentration of about 5-50 nM and the test material can, if desired, be added at a series of dilution. Typical incubations are 2 to 4 hours at 25° C., the time and temperature being interdependent.
After incubation, the solution containing the fibrinogen and test material is removed and the level of binding of fibrinogen measured by quantitating bound fibrinogen to GPIIb-IIIa. Any suitable means of detection may be used, but it is convenient to employ labeled fibrinogen, for example using biotinylated labels. Such methods are well known in the art.
Purified platelet GPIIb-IIIa receptor was prepared as described by Fitzgerald, L. A., et al., Anal Biochem (1985) 151:169-177 (1985). Vitronectin receptor was prepared as described by Smith, J. W., J. Biol Chem (1988) 263:18726-18731. After purification, the receptors were stored in 0.1% Triton X-100 at 0.1-1.0 mg/ml.
The receptors were coated to the wells of 96-well flat-bottom ELISA plates (Linbro EIA-Plus microtiter plate, Flow Laboratories) after diluting 1:200 with a solution of 20 mM Tris-HCl, 150 mM NaCl, 1 mM CaCl2, pH 7.4, to reduce the Triton X-100 concentration to below its critical micellar concentration and adding an aliquot of 100 ul to each well. The wells were all allowed to incubate overnight at 4° C., and then aspirated to dryness. Additional sites were blocked by the addition of bovine serum albumin (BSA) at 35 mg/ml in the above buffer for 2 hours at 30° C. to prevent nonspecific binding. The wells were then washed once with binding buffer ([…] Tris-HCl, 100 mM NaCl 2 mM CaCl2, 1 mg/ml BSA).
The corresponding ligands (fibrinogen, von Willebrand Factor, or vitronectin) were conjugated to biotin using commercially available reagents and standard protocols. The labeled ligands were added to the receptor-coated wells at final concentration of 10 nM (100 ul/well) and incubated for 3 hours at 25° C. in the presence or absence of the test samples. After incubation, the wells are aspirated to dryness and bound ligand is quantitated.
The bound protein is detected by the addition of antibiotin antibody conjugated to alkaline phosphatase followed by addition of substrate (p-nitrophenyl phosphate), and determination of the optical density of each well at […]. Decreased color development is observed in wells incubated with test samples which inhibit binding of ligand to receptor.

[1] = tested on: human platelet-rich plasma; assay: Platelet aggregation assay (Aggregation-Human PRP/ADP); type: cell-based; details: 1 min; human platelet-rich plasma incubated with compound 1 minute at 37° C.; ADP-induced aggregation; read-out: Agg: Human PRP/ADP IC50uM
Method in brief: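 Citrated human PRP (~200-400,000 platelets/μl) from healthy volunteers, stirred, incubated with compound 1 min at 37° C. Aggregation was then triggered, most often by ADP 5 μM, or by 1 μg/ml collagen, 1 μM U46619 or 0.3 μM platelet activating factor, and read in an aggregometer with platelet-poor plasma as reference.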

Structure (SMILES)	IC50 (GPIIb-IIIa)	IC50 [1]
CCNC(=N)c1ccc(C(=O)Nc2ccc3c(c2)CCC(CC(=O)OCC)O3)cc1 (racemic) [Example 71, Hydrochloride]	> 10000 nM	1.5 µM
CCNC(=N)c1ccc(C(=O)Nc2ccc3c(c2)CCC(CC(=O)O)O3)cc1 (racemic) [Example 72, rac-(3,4-Dihydro-6-(N-(4-((ethylamino)iminomethyl)benzoyl)amino)-2H-1-benzopyran-2-yl)acetic Acid]	18.5 nM	0.28 µM
CCOC(=O)CC1CCc2cc(NC(=O)c3ccc(C(=N)N(C)C)cc3)ccc2O1 (racemic) [Example 73, Hydrochloride]	> 10000 nM	1.2 µM
N=C(N)c1ccc(C(=O)Nc2ccc3c(c2)CCC(CC(=O)O)O3)c(Cl)c1 (racemic) [Example 76, rac-(6-(N-(4-(Aminoiminomethyl)-2-chlorobenzoyl)amino)-3,4-dihydro-2H-1-benzopyran-2-yl)acetic Acid]	14 nM	0.56 µM
O=C(O)CC1CCc2cc(NC(=O)/C=C/C3CCNCC3)ccc2O1 (racemic) [Example 78, rac-(3,4-Dihydro-6-(N-(3-(piperidine-4-yl)propenoyl)amino)-2H-1-benzopyran-2-yl)acetic Acid]	20 nM	0.18 µM
CCCNC(=N)c1ccc(C(=O)Nc2ccc3c(c2)CCC(CC(=O)O)O3)cc1 (racemic) [Example 82, rac-(3,4-Dihydro-6-(N-(4-((propylamino)iminomethyl)benzoyl)amino)-2H-1-benzopyran-2-yl)acetic Acid]	19 nM	0.12 µM
CCCCNC(=N)c1ccc(C(=O)Nc2ccc3c(c2)CCC(CC(=O)O)O3)cc1 (racemic) [Example 84, rac-(6-(N-(4-((Butylamino)iminomethyl)benzoyl)amino)-3,4-dihydro-2H-1-benzopyran-2-yl)acetic Acid]	5.5 nM	0.084 µM
CCOC(=O)CC1CCc2cc(NC(=O)c3ccc(C(=N)NC(=O)OC)cc3F)ccc2O1 (racemic) [Example 88, Ethyl rac-(3,4-Dihydro-6-(N-(2-fluoro-4-((methoxycarbonylamino)iminomethyl)benzoyl)amino)-2H-1-benzopyran-2-yl)acetate]	99 nM	0.084 µM
N=C(NCc1ccccc1)c1ccc(C(=O)Nc2ccc3c(c2)CCC(CC(=O)O)O3)cc1 (racemic) [Example 93, rac-(3,4-Dihydro-6-(N-(4-(N′-(phenylmethylamino)iminomethyl)benzoyl)amino)-2H-1-benzopyran-2-yl)acetic Acid]	9.4 nM	0.086 µM
N=C(N)c1ccc(COc2ccc3c(c2)CCN(CC(=O)O)C3=O)cc1 [Example 1, 6-[[4-(Aminoiminomethyl)phenyl]methoxy]-3,4-dihydro-1-oxo-2(1H)-isoquinoline Acetic Acid Trifluoroacetate]	600 nM	20 µM
N=C(N)c1ccc(C#Cc2ccc3c(c2)CCN(CC(=O)O)C3=O)cc1 [Example 2, 6-[[4-(Aminoiminomethyl)phenyl]ethynyl]-3,4-dihydro-1-oxo-2(1H)-isoquinoline Acetic Acid Trifluoroacetate]	30 nM	0.52 µM
N=C(N)c1ccc(CCc2ccc3c(c2)CCN(CC(=O)O)C3=O)cc1 [Example 3, 6-[2-[4-(Aminoiminomethyl)phenyl]ethyl]-3,4-dihydro-1-oxo-2(1H)-isoquinoline Acetic Acid Trifluoroacetate]	110 nM	1 µM
N=C(N)c1ccc(C(=O)Nc2ccc3c(c2)CCN(CC(=O)O)C3=O)cc1 [Example 4, 6-[[(4-(Aminoiminomethyl)benzoy]amino]-3,4-dihydro-1-oxo-2(1H)-isoquinoline Acetic Acid Trifluoroacetate]	3.3 nM	0.1 µM
N=C(N)c1cccc(C#Cc2ccc3c(c2)CCN(CC(=O)O)C3=O)c1 [Example 17, 6-[[3-(Aminoiminomethyl)phenyl]ethynyl]-3,4-dihydro-1-oxo-2(1H)-isoquinoline Acetic Acid Trifluoroacetate]	45000 nM	> 100 µM
N=C(N)c1cccc(CCc2ccc3c(c2)CCN(CC(=O)O)C3=O)c1 [Example 18, 6-[2-[3-(Aminoiminomethyl)phenyl]ethyl]-3,4-dihydro-1-oxo-2(1H)-isoquinoline Acetic Acid Trifluoroacetate]	11000 nM	> 100 µM
N=C(N)c1ccc(CNC(=O)c2ccc3c(c2)CCN(CC(=O)O)C3=O)cc1 [Example 19, 6-[[(4-Aminoiminomethyl)phenyl]methylaminocarbonyl]-3,4-dihydro-1-oxo-2(1H)isoquinoline Acetic Acid Trifluoroacetate]	13000 nM	> 100 µM
CCOCCCC(CC(=O)O)N1CCc2cc(OCCCC3CCNCC3)ccc2C1=O (centres unmarked) [Example 22, 6-[4-(Piperidn-4-yl)propyloxy]-3,4-dihydro-1-oxo-B-(3-ethoxypropyl)-1-oxo-2(1H)-isoquinoline Propanoic Acid Trifluoroacetate]	200 nM	2 µM
N=C(N)c1ccc(COc2ccc3c(c2)CCC(OCC(=O)O)C3)cc1 (centres unmarked) [Example 23]	190 nM	25 µM
O=C(O)COC1CCc2cc(OCCCC3CCNCC3)ccc2C1 (centres unmarked) [Example 24]	760 nM	6.5 µM
